Data on 20 compounds can be found in ChEMBL document CHEMBL1123584, “Xanthine functionalized congeners as potent ligands at A2-adenosine receptors” (J Med Chem, 1987).

Molecules are shown by their SMILES.

The nature of series [1]: Partition coefficient (logP). The format is physicochemical. The note with it: octanol/water.
Series [2] has as its target T1, Adenosine A2 receptor (Homo sapiens) (UniProt P29275+P29274). The series is described as follows: Antagonism of NECA-induced stimulation of adenylate cyclase activity in human platelet membranes at A2-adenosine receptor; value ranges from 17-30. Format: functional, cell membranes.
Series [3] addresses T1, Adenosine A2 receptor (Homo sapiens). The series can be described thus: Antagonism of NECA-induced stimulation of adenylate cyclase activity in human platelet membranes at A2-adenosine receptor. The format is functional, cell membranes.
For series [4], the target named is T2, Adenosine receptor A1 (Rattus norvegicus, UniProt P25099).
T2 sequence (P25099 whole entry): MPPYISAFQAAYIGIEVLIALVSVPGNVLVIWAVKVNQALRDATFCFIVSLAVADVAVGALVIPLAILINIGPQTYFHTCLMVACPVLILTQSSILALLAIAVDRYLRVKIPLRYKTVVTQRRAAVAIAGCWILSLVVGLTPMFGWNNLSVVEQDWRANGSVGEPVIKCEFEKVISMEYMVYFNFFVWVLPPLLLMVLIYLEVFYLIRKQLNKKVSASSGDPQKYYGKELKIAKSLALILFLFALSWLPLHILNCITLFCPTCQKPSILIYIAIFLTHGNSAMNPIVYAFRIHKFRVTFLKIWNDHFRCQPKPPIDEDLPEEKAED
The series is described as follows: Inhibition of [3H]- PIA binding at adenosine A1 receptor on rat cerebral cortex membranes. The format is cell membranes, Membrane.

Series [5] deals with T1, Adenosine A2 receptor (Homo sapiens). The series is described as follows: Antagonism of NECA-induced stimulation of adenylate cyclase activity in human platelet membranes at A2-adenosine receptor; value ranges from […]-[…]. Format: functional, cell membranes.
The target is the same in series [6]. The series can be described thus: Antagonism of NECA-induced stimulation of adenylate cyclase activity in human platelet membranes at A2-adenosine receptor; value ranges from 30-54. The format is functional, cell membranes.
For series [7] the target is unchanged. The series is described as follows: Antagonism of NECA-induced stimulation of adenylate cyclase activity in human platelet membranes at A2-adenosine receptor; value ranges from 15-51. The format is functional, cell membranes.
The target is the same in series [8]. The series can be described thus: Antagonism of NECA-induced stimulation of adenylate cyclase activity in human platelet membranes at A2-adenosine receptor; value ranges from 106-173. The format is functional, cell membranes.
Series [9] shares this target. The series can be described thus: Antagonism of NECA-induced stimulation of adenylate cyclase activity in human platelet membranes at A2-adenosine receptor; value ranges from 100-540. Format: functional, cell membranes.
For series [10] the target is unchanged. The series can be described thus: Antagonism of NECA-induced stimulation of adenylate cyclase activity in human platelet membranes at A2-adenosine receptor; value ranges from 75-370. Format: functional, cell membranes.
Series [11] shares this target. The series can be described thus: Antagonism of NECA-induced stimulation of adenylate cyclase activity in human platelet membranes at A2-adenosine receptor; value ranges from 54-98. Format: functional, cell membranes.
For series [12] the target is unchanged. The series is described as follows: Antagonism of NECA-induced stimulation of adenylate cyclase activity in human platelet membranes at A2-adenosine receptor; value ranges from 35-40. The format is functional, cell membranes.

What is called logP is a log measure of how a compound divides between an organic and an aqueous phase. For orientation: Kb means the affinity of an antagonist, worked out from how it opposes an agonist. Low readings indicate higher antagonist affinity, high ones lower antagonist affinity. In the case of `CCn1c(=O)c2nc(-c3ccc(OCC(=O)NCCNC(=O)[C@@H](N)CCCCN)cc3)[nH]c2n(CC)c1=O`, in series [1], the logP is -1.2. The compound also showed a Kb in [2] of 23 nM.

As for `CCn1c(=O)c2nc(-c3ccccc3)[nH]c2n(CC)c1=O`, the Kb in series [3] was found to be 210 nM.

For `Cn1c(=O)c2[nH]c(-c3ccc(OCC(=O)NCCN)cc3)nc2n(C)c1=O`, the logP in [1] is -0.63.

The compound `Cn1c(=O)c2nc(-c3ccccc3)[nH]c2n(C)c1=O` showed a Kb in series [3] of 1900 nM. That is a single-digit micromolar value.

For orientation: Ki means a measure of affinity in units of concentration, obtained from inhibition or displacement. Lower therefore signals a stronger hold on the target. In series [4], `CCCn1c(=O)c2[nH]c(-c3ccc(OCC(=O)NCCNC(=O)[C@@H](N)CCCCN)cc3)nc2n(CCC)c1=O` displayed a Ki of 0.87 nM. This counts as sub-nanomolar.

Consider `Cn1c(=O)c2nc(-c3ccc(OCC(=O)Nc4ccc(CC(=O)NCCN)cc4)cc3)[nH]c2n(C)c1=O`, for which the logP in [1] is -0.05. This compound also gave a Kb in series [5] of 63 nM.

In turn, `Cn1c(=O)c2nc(-c3ccc(OCC(=O)NCCN)cc3)[nH]c2n(C)c1=O` registered an antagonist dissociation constant (Kb) in [6] of 40 nM.

In series [7], `CCn1c(=O)c2nc(-c3ccc(OCC(=O)Nc4ccc(CC(=O)NCCN)cc4)cc3)[nH]c2n(CC)c1=O` gave a Kb of 28 nM.

`CCCn1c(=O)c2nc(-c3ccc(OCOC(=O)CC)cc3)[nH]c2n(CCC)c1=O` gave an antagonist dissociation constant (Kb) in series [8] of 135 nM.

In the case of `CCn1c(=O)c2[nH]c(-c3ccc(OCC(=O)NCCN)cc3)nc2n(CC)c1=O`, the logP in [1] is -0.06.

Take `CCn1c(=O)c2nc(-c3ccc(OCC(=O)NCCNC(=O)C(CCCCNC(=O)OCc4ccccc4)NC(=O)OC(C)(C)C)cc3)[nH]c2n(CC)c1=O` (stereo not drawn): in series [9], the Kb worked out at 230 nM.

In turn, `CCC(=O)OCOc1ccc(-c2nc3c(=O)n(CC)c(=O)n(CC)c3[nH]2)cc1` registered a Kb in [10] of 170 nM. In other words, the sub-micromolar range.

Turning to `CCOC(=O)COc1ccc(-c2nc3c(=O)n(CC)c(=O)n(CC)c3[nH]2)cc1`, the affinity in series [4] corresponds to a Ki of 140 nM.

Compound `CCn1c(=O)c2nc(-c3ccc(OCC(=O)OC(C)C)cc3)[nH]c2n(CC)c1=O` displayed a Kb in series [11] of 73 nM. This compound yielded a Ki in series [4] of 90 nM.

For `CCn1c(=O)c2nc(-c3ccc(OCC(=O)Nc4ccc(CC(=O)OC)cc4)cc3)[nH]c2n(CC)c1=O`, in series [5], the Kb stood at 210 nM.

`CCn1c(=O)c2nc(-c3ccc(OCC(=O)Nc4ccc(C)cc4)cc3)[nH]c2n(CC)c1=O` gave a Kb in series [5] of 100 nM.

In the case of `CCCn1c(=O)c2nc(-c3ccc(OCC(=O)OCC)cc3)[nH]c2n(CCC)c1=O`, the affinity in [4], expressed as Ki, was 13 nM.

For the compound `CCCn1c(=O)c2[nH]c(-c3ccc(OCC(=O)NCCN)cc3)nc2n(CCC)c1=O` [XANTHINE AMINE CONGENER], the logP in series [1] was 0.81.

The compound `CCn1c(=O)c2nc(-c3ccc(OCC(=O)NCCN)cc3)[nH]c2n(CC)c1=O` registered a Kb in series [5] of 21 nM.

Compound `CCCn1c(=O)c2nc(-c3ccc(OCC(=O)NCCNC(=O)[C@@H](N)CCCCN)cc3)[nH]c2n(CCC)c1=O` registered a Kb in series [12] of 37 nM. This counts as double-digit nanomolar.
